Assay results reported in US20230158057A1, “COMPOSITIONS AND METHODS FOR THE TREATMENT OF PAIN” (Duke University, priority 2020, published 2023).
Entries after “also recorded” stand apart in the source; their conditions may differ.

Key:
[1] = system: naïve mice; experiment: Conditioned place preference (CPP) assay in naïve mice; details: i.t., morphine 2 nmol, DMXAA or ADU-S100 35 nmol
Method: (§1) All mice underwent 3 d of preconditioning habituation in a temperature- and humidity-controlled room under low-light conditions between 08:00-16:00 in a two compartment CPP chamber (Med Associates Inc.). The two compartments differed by both visual and tactile cues. On the 4th day, animal behavior was video-recorded using a webcam connected to a laptop computer, and animal movement was automatically tracked for 15 minutes using the ANY-Maze software (Stoelting). […] On the conditioning day(s) (day 5 for single trial; day 5-7 for repeated trials), two pairing sessions were performed, with vehicle pairing in the AM session and drug treatment (e.g., vehicle or drug) in the PM session, separated by 4 h. In the AM session, mice always received vehicle (10 μl saline, delivered via i.t. injection under isoflurane anesthesia) and were immediately placed in their preferred CPP chamber for 2 h. […] 24 h after the completion of the pairing experiments, mice were placed in the CPP test box with access to both chambers and behavior was recorded for 15 minutes and analyzed using the ANY-Maze software for chamber preference. CPP score was calculated as the inverse of the time spent in the preferred chamber according to: [post-preference (sec)—pre-preference (sec)]. Vehicle served as a negative control for these experiments, while morphine (three trials/naïve mice) or clonidine (single trial/ongoing pain) served as positive controls.

[2] = system: mice with CIPN; experiment: Chemotherapy-induced peripheral neuropathy (CIPN) model established with paclitaxel; format: in vivo, mouse; details: i.p., 24 h after the 2nd injection
Method: Mouse pain models: The chemotherapy-induced peripheral neuropathy (CIPN) model of chronic neuropathic pain was established as we have done previously, using 8-10-week-old CD-1 (strain #022, Charles River) mice injected with paclitaxel (2 mg/kg i.p.) every other day, with 4 injections total. The chronic constriction injury (CCI) model of neuropathic pain was also produced using 8-10-week-old CD-1 under isoflurane anesthesia. Briefly, the right sciatic nerve was exposed above the hip and two ligatures (7-0 Prolene) were placed around the nerve 1 mm apart located proximal to the trifurcation. Ligatures were loosely tied until a subtle flick of the ipsilateral hind limb was observed. CD-1 mice were also used to establish the SNI model, which was generated by tightly ligating the tibial and common peroneal nerves followed by transection and removal of a ˜3 mm portion of the nerve. […] All mice were housed and monitored in accordance with AAALAC standards and Duke IACUC guidelines that pertained to each model.
Reflexive-based sensory testing in mice: All behavioral testing in mice was performed in a specialized humidity- and light-controlled mouse behavior facility maintained at 21-24° C., with testing conducted between the hours of 8:00-16:00. […] We determined the 50% paw withdrawal threshold using the up-down method. […]

[3] = system: mice with CIPN or BCP; experiment: Conditioned place preference (CPP) assay in chronic pain (CIPN and BCP) models; format: in vivo, mouse; details: for conditioned place preference (ongoing pain): mice with CIPN or BCP, i.t.; for conditioned place preference, single pairing: mice with neuropathic pain (CIPN), i.t. 35 nmol
Method: as §1

[4] = system: naïve mice; experiment: Von Frey testing of mechanical thresholds in naïve mice (WT and knockout); format: in vivo, mouse; details: naïve mice; for dose exhibiting the largest increase in paw withdrawal thresholds: i.t.; for mechanical sensory thresholds (von Frey): i.t. injection
Method: Reflexive-based sensory testing in mice: All behavioral testing in mice was performed in a specialized humidity- and light-controlled mouse behavior facility maintained at 21-24° C., with testing conducted between the hours of 8:00-16:00. Mice were habituated to the testing environment for at least 2 days prior to baseline testing. All tests were performed by an experimenter who was blinded to experimental conditions, including genotypes and drug treatment. For multi-day experiments using STING agonists, mice were tested in the same room at approximately the same time each day. To measure mechanical sensitivity, mice were confined to individual chambers with non-transparent borders on an elevated mesh rack, preventing mice from visualizing or interacting with one another during the testing period. Mouse hindpaws were stimulated with a series of von Frey filaments with logarithmically increasing stiffness (0.02-2.56 g, Stoelting), which was applied perpendicularly to the central plantar surface. We determined the 50% paw withdrawal threshold using the up-down method. […] To test cold sensitivity, mice were again placed on an elevated metal mesh floor in isolated chambers, and a ˜20 μl acetone drop was applied to the central plantar surface of the mouse hindpaw using a pipette.
For the experiments utilizing i.t. 2′3′-cGAMP and 3′3′-cGAMP complexed with Lipofectamine 2000 (ThermoFisher, 11668), 10 μg 2′3′-cGAMP or 3′3′-cGAMP was incubated at room temperature for 30 minutes in sterile PBS with 3 μl Lipofectamine 2000. In this case, the vehicle control was 3 μl Lipofectamine 2000 in PBS, as in a previous study which used this approach. […] For experiments utilizing rabbit anti-IFN-α or -β neutralizing antibodies, a polyclonal rabbit IgG antibody served as the control. Antibodies were utilized in vivo at 300 ng/mouse or in vitro at 300 ng/ml. Paclitaxel was administered via repeated i.p. injections every other day for 4 days at a dose of 2 mg/kg. For the whole mount DRG recordings, young mice (4-6 weeks) were administered a single 6 mg/kg dose one week prior to the experiment. All intrathecal injections were performed under brief anesthesia with 2-2.5% isoflurane. Drugs administered by intrathecal injection were preceded by shaving a small area on the back corresponding to the injection site, followed by spinal puncture using a 30-gauge needle between the L5-L6 levels to deliver a maximum of 5-10 μl into the cerebrospinal fluid. Successful intrathecal injection was always confirmed by a brisk tail-flick upon delivery. For the experiments involving intraplantar (i.pl.) injection, IFN-α was dissolved in sterile saline and administered at the concentrations indicated in the figures in a total volume of 20 μl, administered under 2-2.5% isoflurane anesthesia to minimize animal stress. For these experiments, vehicle (saline) or IFN-α were slowly and carefully expressed into the left dorsal hindpaw of anesthetized mice and allowed to perfuse the tissue for ˜20 seconds prior to removal of the needle. […] Mechanical sensory testing was done anteriorly and care was taken to avoid Von Frey filament stimulation of the injection site.

[5] = system: tumor-bearing femora; experiment: In vivo X-ray radiography of bone destruction, LLC model; design: species or system mouse; details: for bone destruction score: LLC model, twice i.p.
Excerpt: In vivo X-ray radiography. Osteolytic bone destruction was continuously evaluated by radiography using the MultiFocus by Faxitron system (Faxitron Bioptics LLC, Tucson, Ariz.). Radiographs of tumor-bearing femora were rated for bone destruction on a 0-5 score scale based on previous study: 0 for normal bone at baseline without tumor inoculation; 1 for one to three radiolucent lesions indicative of bone destruction compared to baseline; 2 for increased number of lesions (three to six lesions) and loss of medullary bone; 3 for loss of medullary bone and erosion of cortical bone; 4 for full-thickness unicortical bone loss; 5 for full-thickness bicortical bone loss and displaced skeletal fracture. All radiographic image quantifications were completed by an experimenter who was blinded to the experimental conditions.

Structure (SMILES) | conditioned place preference, repeated pairing [1] | deaths (toxicity with systemic administration) [2] | conditioned place preference (ongoing pain) [3] | conditioned place preference, single pairing [3] | dose exhibiting the largest increase in paw withdrawal thresholds [4] | mechanical sensory thresholds (von Frey) [4] | bone destruction score [5] | bone destruction in Batf3^−/− mice ([5]; 20 mg/kg i.p. d3 and d7) | bone destruction score, WT and Rag1^−/− ([5]; 20 mg/kg i.p. d3 and d7) | bone destruction score, WT vs STING^gt/gt ([5]; 20 mg/kg i.p. d3 and d7) | bone destruction score, WT vs Ifnar1^−/− ([5]; d11 and d15)
Nc1ncnc2c1ncn2[C@@H]1O[C@@H]2COP(=O)([S-])O[C@@H]3[C@H](O)[C@@H](COP([O-])(=S)O[C@H]2[C@H]1O)O[C@H]3n1cnc2c(N)ncnc21.[Na+].[Na+] (stereo partly drawn) [ADU-S100, (2′-5′)-[P(R)]-5′-O-[(R)-hydroxymercaptophosphinyl]-P-thioadenylyl-adenosine cyclic dinucleotide] | neither DMXAA nor ADU-S100 could induce place preference | No mice died | induced CPP in both models | induced comparable CPP as clonidine | 25 µg | induced dose-dependent antinociception | reduced the bone destruction score at d11 and d15 |  |  |  | 
Cc1ccc2c(=O)c3cccc(CC(=O)O)c3oc2c1C [DMXAA, 2-(5,6-dimethyl-9-oxo-9H-xanthen-4-yl)acetic acid] | neither DMXAA nor ADU-S100 could induce place preference | 3 mice | induced CPP in both models | induced comparable CPP as clonidine | 10 µg | induced dose-dependent antinociception; also recorded: dose-dependent increase in paw withdrawal thresholds | decreased the bone destruction score on d8, d11 and d15 | reduced bone destruction on d8 and d11 but not d15 in Batf3^−/− mice | improvement in the bone destruction score in both WT and Rag1^−/− mice at d11, but not at d15 | reduction in the bone destruction score in DMXAA-treated WT mice at d11 and d15 after tumor inoculation, and this effect was abolished in STING^gt/gt mice | significantly reduced the bone destruction score without changing overall body weight in WT mice, but this effect was abolished in Ifnar1^−/− mice
